Source: publication PMC12040169 (PLOS Biology, 2025)

Assay: in vitro
Conditions: human, hela cells, % viability

Row | SMILES | viability at 28.5 h, 10 µM [%]
1 | O=S(=O)(NC[C@H]1C[C@@H]2CC[N@]1C[C@@H]2CN1CCOCC1)c1ccc(Cl)cc1 [CBK288762] | 92.4
2 | c1ccc2c(c1)OCC(c1nn3c(-c4ccncc4)nnc3s1)O2 (stereo not shown) [CBK288560] | 107
3 | Fc1ccc(OCCCCCN2CCC3(CC2)OCCc2c3[nH]c3ccccc23)cc1 [CBK113516T] | 2.48
4 | COC(=O)c1cc(C#N)c(=O)n(CC(=O)N(C)Cc2ccsc2)c1 [CBK297788] | 115
5 | CCOC(=O)CNC(=O)Nc1cc2ccccc2c(Br)n1 [CBK063279] | 92.5
6 | O=C(CSc1ncnc2c1oc1ccccc12)Nc1ccccc1 [CBK057994] | 93.4
7 | CCNC(=O)Nc1ncc(-c2ccc(C(C)(C)C)cc2)c2cccnc12 [CBK070632] | 98.6
8 | CC(NC(=O)c1ncoc1-c1ccc(F)cc1)c1cccnc1 (stereo not shown) [CBK282358] | 103
9 | Cc1ccc(-c2nn(-c3cc(N4CCN(CCO)CC4)ccc3[N+](=O)[O-])c(=O)c3ccccc23)cc1C [CBK263713] | 82.6
10 | O=C(NC(=S)N1C[C@@H]2C[C@@H](C1)c1cccc(=O)n1C2)c1ccco1 [CBK288492] | 110
11 | c1ccc(Nc2nc(-c3ccc(N4CCOCC4)cc3)cn3ccnc23)cc1 [CBK066222] | 90.4
12 | COC(=O)N1CC2(CCCCC2NCC2CCCO2)c2ccccc21 (stereo not shown) [CBK083541T] | 95.2
13 | CCCc1cc(=O)oc2cc(OCC(=O)OC(C)C)c(Cl)cc12 [CBK264459] | 96.9
14 | O=C1NCCN(C(=O)COc2ccc(F)cc2F)C1Cc1ccccc1-c1cccnc1 (stereo not shown) [CBK285832] | 95.6
15 | O=C1c2ccccc2C(=O)N1Cc1nc2ccccc2c(=O)n1CCCN1CCOCC1 [CBK268463] | 96.1
16 | COc1ccc(CCNC(=O)N(CCC#N)C2CCCCC2)cc1 [CBK156375] | 100
17 | CC(=O)N1CC2(CCCC2)c2c(F)cccc21 [CBK306339] | 78.2
18 | Cc1nccn1CCCNC(=O)c1ccc(N2CCCC2)cc1 [CBK281589] | 81.6
19 | C(=N\Nc1nnc(-c2ccccc2)c(-c2ccccc2)n1)/c1cccnc1 [CBK262025] | 91.8
20 | O=C(NCc1ccccn1)c1cc2cc(Cl)ccc2[nH]1 [CBK107265] | 88.2
21 | COc1nc(NCCN2CCOCC2)nc(Nc2ccccc2)n1 [CBK027298] | 102
22 | CN1CCC(N[C@H]2CC(C)(C)[C@@H]3C[C@@](C)(O)CC[C@]23CCC(=O)N2CCOCC2)CC1 [CBK289040] | 97.2

Row | SMILES | viability at 28.5 h, 10 µM [%]
23 | O=S(=O)(c1ccc(Cl)c(Cl)c1)N1CCOCC1 [CBK043794] | 90.7
24 | Cc1nc2ccc(NC(=O)c3cccc(C(F)(F)F)c3)cc2nc1C [CBK270221] | 88.2
25 | Cc1ccc(CN(CC(=O)N2CCC(C(N)=O)CC2)S(=O)(=O)c2ccc(Br)cc2)cc1 [CBK265813] | 102
26 | COc1cccc(OCC(=O)NCC(c2cccs2)N2CCOCC2)c1 (stereo not shown) [CBK304664] | 91.6
27 | CCOC(=O)c1c(NC(=O)Cn2cnc([N+](=O)[O-])n2)sc2c1CCC(C)C2 (stereo not shown) [CBK263058] | 120
28 | Cc1ccnn1CCC(=O)NC1(c2ccccc2F)CCCC1 [CBK283691] | 81.7
29 | CSc1ccccc1NC(=O)c1cccn(Cc2ccc(C)cc2)c1=O [CBK294426] | 87
30 | O=C(Nc1ccc(C2(c3ccc(NC(=O)c4cccc5ccccc45)cc3)c3ccccc3-c3ccccc32)cc1)c1cccc2ccccc12 [CBK261163] | 102
31 | CCCCn1c(=O)c(C(=O)Nc2ccccc2S(N)(=O)=O)c(O)c2ccccc21 [CBK262260] | 98.6
32 | CCC(=O)NC(Nc1cc(Cl)ccc1OC)(C(F)(F)F)C(F)(F)F [CBK261342] | 96.3
33 | CC(C)c1nc(CCN(C)C(=O)NCc2cnc3cnccn23)no1 [CBK307666] | 108
34 | O=C(CCNC(=O)c1ccc(Br)o1)NCc1ccccc1Cl [CBK294454] | 81.5
35 | O=C1COc2ccccc2CCCCC2(CCCN(CC(=O)N3CCCC3)C2)CN1 (stereo not shown) [CBK292009] | 105
36 | O=C(C1CCCC1)N1CCC(c2nnc3n2CCCCC3)CC1 [CBK284612] | 103
37 | CC(=O)Nc1cccc(-c2cnc(N)c(N3CCC(C(=O)O)CC3)n2)c1 [CBK063657] | 98.9
38 | Cc1oc(C)c(C(=O)Nc2cccc(C(=O)O)c2)c1C(=O)Nc1cccc(C(=O)O)c1 [CBK266472] | 108
39 | C=CCNC(=O)CSc1nc(O)cc(=O)[nH]1 [CBK073298] | 104
40 | Nc1nc(N)c2cc(C(F)(F)F)ccc2n1 [CBK025934] | 66.4
41 | Cc1ccc(Nc2ncc(C(=O)NCCCN3CCN(c4cccc(Cl)c4)CC3)c3ccccc23)cc1Cl [CBK291251] | 90.1
42 | CN1CCC(N2CCN(C(=O)c3ccccc3Nc3cccc(C(F)(F)F)c3)CC2)CC1 [CBK149097] | 88.7
43 | CN(CCN1CCCCC1)C(=O)CCc1cn(C)c2ccccc12 [CBK281906] | 94.3
44 | C[C@@H]1CN(C(=O)OCCn2cccc2)C[C@H](C)O1 [CBK200123] | 82.2

Row | SMILES | viability at 28.5 h, 10 µM [%]
45 | COc1cccc(CN2CCN(CCc3ccccc3)CC2)c1 [CBK126454] | 90.5
46 | CC(=O)c1ccc(CN2CCCN(S(=O)(=O)c3ccc(C(=O)c4ccccc4)cc3)CC2)cc1 [CBK062764] | 109
47 | O=C(c1ccc2[nH]c(=O)[nH]c2c1)N1CCCC2(CCN(Cc3ccccc3)C2)C1 (stereo not shown) [CBK137149] | 91.7
48 | CC(C)C(=O)N1CCCC(n2c(=O)oc3ccc(Cl)cc32)C1 (stereo not shown) [CBK282890] | 95.3
49 | Cc1cc(N2CCOC(c3nc(C)n[nH]3)C2)c2ccc(F)c(F)c2n1 (stereo not shown) [CBK306018] | 92.2
50 | CC(NC(=O)C1CCN(C2Cc3ccccc3C2)CC1)c1ccccc1 (stereo not shown) [CBK148031] | 95.7
51 | O=C(CC(Nc1ccc2ccccc2c1)c1ccncc1)c1ccc(Br)cc1 (stereo not shown) [CBK262209] | 98.7
52 | CC(C)NC(=O)C1CC2CCC1(C)C[C@]21NC(=O)c2ccccc2N1 (stereo partly shown) [CBK284444] | 88.7
53 | O=C(O)C1CSC(c2cccc(Cl)c2Cl)N1 (stereo not shown) [CBK077526] | 106
54 | COC(=O)c1ccccc1S(=O)(=O)n1c(=O)n(CCc2c[nH]c3ccccc23)c2ccccc21 [CBK106509] | 87.2
55 | CC1(CNC(=O)c2cc(C3CC3)nc3ccccc23)COC1 [CBK281752] | 90
56 | CN1CCC(Oc2ncccc2OCc2ccccc2)CC1 [CBK036311] | 97.4
57 | CCCn1cc(S(=O)(=O)N2CCCC2c2ccc(Nc3cccc(C)n3)cn2)c(C)n1 (stereo not shown) [CBK286258] | 77.6
58 | CC1CCN(C(=O)CC(NC(N)=O)c2cccc(Br)c2)CC1 (stereo not shown) [CBK305788] | 95.3
59 | Cc1ccc(-c2ncc(OCCN3CCCC3=O)nc2N)c(C)c1 [CBK145127] | 99.3
60 | CCOc1ccc(Cc2nnnn2CC(=O)O)cc1 [CBK286677] | 91.2
61 | CSc1nnc(-c2sccc2OCc2ccc(Cl)cc2Cl)n1C [CBK067693] | 111
62 | Cc1ccc(C(CC(=O)O)NC(=O)c2ccc(S(=O)(=O)N3CCCC(C)C3)cc2)cc1 (stereo not shown) [CBK295345] | 95.7
63 | Cn1c(=O)c2c(ncn2CC(=O)Nc2ccc(C#N)cc2)n(C)c1=O [CBK133466] | 90.9
64 | OCCN1CC2(CCN(Cc3c(F)cccc3F)CC2)c2ccccc21 [CBK137010] | 109
65 | O=C(CCCN1C(=O)c2cccc3cccc(c23)C1=O)N1CCN(C/C=C/c2ccccc2)CC1 [CBK263300C] | 103
66 | Cc1ccc(S(=O)(=O)c2cncc(N3CCNCC3)n2)cc1 [CBK051166C] | 101

Row | SMILES | viability at 28.5 h, 10 µM [%]
67 | O=C(O)CCSC(CC(=O)c1ccccc1)c1ccc(Cl)cc1 (stereo not shown) [CBK077251] | 97.3
68 | Cc1ccc2oc(-c3ccc(O)cc3)nc2c1 [CBK093878] | 96.2
69 | CCc1nc2c(OCc3ccc(S(C)(=O)=O)cc3)cccn2c1N(CCOC)C(C)=O [CBK147846] | 87.4
70 | O=C(c1ccccc1F)N1CCN(C2CCN(Cc3ccccc3)CC2)CC1 [CBK263404] | 93.3
71 | O=C(NCCCO)c1c(O)c2ccccc2[nH]c1=O [CBK018215] | 71.7
72 | O=S(=O)(Nc1cccc2cccnc12)c1cccs1 [CBK043904] | 60.8
73 | COc1ccc2[nH]cc(CC(=O)Nc3nc4c(OC)cccc4s3)c2c1 [CBK149279] | 97.8
74 | C=CCNC(=O)C1CCCN(c2nc3ccccc3n2C)C1 (stereo not shown) [CBK282872] | 105
75 | Cc1c(Cl)cccc1NC(=O)CSc1nccn1C [CBK270297] | 91.5
76 | CC(C)(C)OC(=O)N1CCCC(c2nc3ccccc3cc2N)C1 (stereo not shown) [CBK284711] | 96.7
77 | COc1ccc(Cl)cc1C1(CNC(=O)C2CCC(N)C2)CCOCC1 (stereo not shown) [CBK305523] | 85.9
78 | COCCOCCCC(=O)OCC1Cc2cc(F)ccc2O1 (stereo not shown) [CBK304886] | 91.2
79 | Cn1c(CN2CCN(c3ccc(C#N)cn3)CC2)nnc1C1CC1 [CBK304781] | 92.5
80 | Ic1cnn(Cc2nc(-c3ccccc3)no2)c1 [CBK269901] | 90.3
81 | CCC(C)NC(=O)Cn1c(C2CCCNC2)cc2cccnc21 (stereo not shown) [CBK285085] | 109
82 | NC(=O)CN1CCCN(c2ccnc(OCC3COc4ccccc4O3)n2)CC1 (stereo not shown) [CBK083236T] | 91.4
83 | CN(C)C1(c2nnnn2CCOC(=O)Nc2ccc(Cl)cc2)CCCCC1 [CBK266093] | 94.5
84 | COCCNc1nc(-c2cc(OC)c(OC)c(OC)c2)cnc1N [CBK063559] | 112
85 | CC1CCN(S(=O)(=O)c2ccc(NC(=O)c3ccc(Br)o3)cc2)CC1 [CBK264536] | 101
86 | O=C(Cn1c(-c2cccs2)cc2cccnc21)NCc1ccncc1 [CBK282456] | 104
87 | CC(=O)Nc1ccc(NC(=O)COc2c(C)cc(Br)cc2C)cc1 [CBK267321] | 101

Same assay, conditions: human, hela cells, % viability, bulk resorufin, single well

Row | SMILES | viability at 28.5 h, 10 µM [%]
88 | CC(=O)[C@H]1C[C@@H](CC(=O)N2CCC(C#N)(c3ccccc3)CC2)C1(C)C [CBK091393] | 91.5
